Data as given in patent US20110059885A1, “TREATMENT OF DISEASES AND CONDITIONS MEDIATED BY EICOSANOIDS” (Natural Environment Research Council, priority 2008, published 2011).

Experiments:
[1] = system: immune complex induced lung injury; assay: Immune complex induced lung disease (intranasal anti-Ova antibody); type: in vivo, mouse
Protocol: Recombinant OmCI was given at 0, 50, 100 and 250 μg intravenously together with 300 μg Ova containing 0.3% Evans blue (EB). […] MK886 is a leukotriene synthesis inhibitor. MK886 was administered with 300 μg Ova containing 0.3% Evans blue (EB) as a positive control.

[2] = LTB4 binding by UV absorbance after ultrafiltration
Protocol: The mixture was concentrated to 200 μl in Vivaspin (Sartorious) 5 kDa cut off ultrafiltration device. The retentate was washed with a further 30 mL of PBS and concentrated to 200 μl. In parallel, the same amount (4.5 mg) of bOmCI was incubated with 1.8 ml ultrapure ethanol in 39 mL PBS, then concentrated and washed as described above. The final volume of the concentrated proteins was 200 μl. UV absorption spectra of the proteins were examined using a Nanodrop ND-1000 Spectrophotometer.

[3] = system: LTB4 induced skin reaction; assay: Local skin reaction induced by topical application of LTB4; type: in vivo, human
Protocol: Reactions appear after 12 hours and peak at 24-48 hours.
The solutions were then applied to the flexor surface of the forearm and air dried. […] The deposits were occluded under a chamber which was removed after 6 hours. Skin reactions were observed from 12-96 hours.
Solutions were incubated for 10 minutes at room temperature then applied to the flexor surface of the forearm and air dried. […] The deposits were occluded under a chamber which was removed after 6 hours. Skin reactions were observed from 12-96 hours.

[4] = Competitive enzyme immunoassay (EIA) for 12(S)-HETE binding; settings: for proportion of 12(S)-HETE bound: 634 molar excess OmCI to 12(S)-HETE, 12500 pg/mL 12(S)-HETE (FIG. 5)
Protocol: Competitive enzyme immunoassays (EIAs) from Assay Designs Inc. are available for the quantification of a number of the eicosanoids. One such EIA kit uses a polyclonal antibody to 12(S)-HETE to bind 12(S)-HETE labelled with alkaline phosphatase and competing unlabelled 12(S)-HETE in the sample or standards of known concentration. After simultaneous incubation at room temperature and capture of the antibody on the plate, the excess reagents are washed away, the substrate added and reaction measured by microplate reader. The higher the concentration of 12(S)-HETE in sample or standard the lower the absorbance reading, because the unlabelled fatty acid competes for binding with the alkaline phosphatase labelled molecule.
12(S)-HETE EIA Kit was from Assay Designs (Cat. No. 900-050). OmCI stocks used were expressed either in yeast (yOmCI) or bacteria (bOmCI). Both stocks were ≧98% pure, 8.3 mg/mL in phosphate buffered saline pH 7.2 (PBS). The negative control tick histamine binding protein RaHBP2, which is also a lipocalin (Paesen et al., 1999), was expressed in bacteria and was also ≧98% pure, 8.3 mg/mL in PBS. 12(S)-HETE standard was diluted to 50000, 12500, 3125, 781, 195 pg/mL in the assay buffer supplied with the kit. 100 μl of the 12500, 3125 and 0 pg/mL solutions were mixed with ≦9 μl of phosphate buffered saline pH 7.2 (PBS) or solutions of OmCI or RaHBP2 in PBS. The mixtures were incubated at room temperature for 20 minutes then used in the 12(S)-HETE immunoassay in accordance with the manufacturers instructions. The absorbance readings of the treated samples were compared with a standard curve to estimate the concentration of 12(S)-HETE available in solution for binding by the anti-12(S)-HETE polyclonal antibody.
Similar methods to those described in Example 1 were used.

[5] = LTB4 EIA using only LTB4-AP conjugate as ligand; type: binding; settings: for comparison of LTB4-AP binding by yOmCI and bOmCI: equivalent concentrations (FIG. 9)
Protocol: (§1) 100 μl of the standard solutions were mixed with ≦90 of PBS or diluted stock solutions of OmCI or RaHBP2. The mixtures were incubated at room temperature for 20 minutes then used in the immunoassays in accordance with the manufacturers instructions. The absorbance readings of the treated samples were compared with a standard curve to estimate the concentration of eicosanoids available in solution for binding by the anti-eicosanoid polyclonal antibodies.

[6] = Competitive EIA for cysteinyl leukotriene binding; settings: data not shown
Protocol: as §1

[7] = Competitive EIA for LTB4 with unlabelled LTB4; type: binding; settings: 750 pg/mL LTB4 added (FIG. 7)
Protocol: as §1

[8] = Competitive EIA for thromboxane B2 binding
Protocol: as §1

[9] = biological target: T1, Human BLT2 (Homo sapiens, UniProt Q9NPC1); settings: cited from earlier work
T1 sequence (Q9NPC1 1-358): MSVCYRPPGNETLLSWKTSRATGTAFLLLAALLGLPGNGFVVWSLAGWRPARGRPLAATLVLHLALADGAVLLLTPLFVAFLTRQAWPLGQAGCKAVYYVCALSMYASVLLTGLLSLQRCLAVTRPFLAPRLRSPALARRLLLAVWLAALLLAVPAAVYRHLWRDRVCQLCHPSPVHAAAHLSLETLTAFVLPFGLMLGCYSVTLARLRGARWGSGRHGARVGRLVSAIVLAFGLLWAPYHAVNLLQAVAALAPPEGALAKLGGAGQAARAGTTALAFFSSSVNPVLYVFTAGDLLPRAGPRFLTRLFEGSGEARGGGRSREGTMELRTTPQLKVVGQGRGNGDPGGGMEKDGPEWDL

[10] = 50 μg intravenous (legend of FIG. 16)
[11] = 100 μg intravenously 15 min prior to intranasal OVA antibody
[12] = Example 5, bOmCI 33×, 16×, 7×, 2× or ovalbumin 15×, 3×, 1× molar excess, forearm (FIG. 12)
[13] = AP conjugate only, data not shown

With “OmCI: soft tick derived complement (C) inhibitor of Ornithodoros moubata, SEQ ID NO: 2 / 3; binds C5 and LTB4” the “dose dependence of effect” value ([1]; 0, 50, 100 and 250 μg intravenously, data not shown) was “dose dependent”, the “neutrophil recruitment in the lung” value [1, 10] was “reduces neutrophil recruitment in the lung” and the “vascular permeability and protein exudation” value [1, 10] was “decreases vascular permeability and protein exudation”. For the same compound, the “neutrophil recruitment in the lung” value [1, 11] was “reduced neutrophil recruitment in the lung”, the “pulmonary microvascular damage and protein exudations in the bronchoalveolar space” value [1, 11] was “reduced protein exudations” and the “LTB4 binding stoichiometry and affinity” value ([2]; conclusion from examples 6 and 7) was “binds to a single molecule of LTB4 with high affinity”. The “skin reaction induced by 100 ng LTB4” value [3, 12] was “completely ablated”, the “skin reaction induced by 100 ng LTB4” value ([3]; Example 8, 4:1 to 1:1 molar ratio (FIG. 15)) was “ablated the skin reaction” and the “lesion formation compared to LTB4 alone” value ([3]; Example 8, molar ratios 0.5:1 and less) was “no effect on lesion formation”.

For yOmCI: yeast expressed OmCI, the “proportion of 12(S)-HETE bound” value [4] was “roughly 50%” and the “comparison of LTB4-AP binding by yOmCI and bOmCI” value [5] was “fairly similar”.

For bOmCI: bacterial expressed OmCI, the “LTB4 bound from solution” value ([2]; 1:1 molar ratio OmCI:LTB4, flow through of ultrafiltration (FIG. 13A)) was “all the LTB4 added to initial mixture was bound”, the “proportion of 12(S)-HETE bound” value [4] was 97% and the “amount of 12(S)-HETE available in solution for antibody binding” value ([4]; 20 min preincubation with 12500 pg/mL 12(S)-HETE, 41.2 μg protein (FIG. 2)) was “decreases the amount of 12(S)-HETE available in solution”. The “direct binding of 12(S)-HETE-AP conjugate” value [4, 13] was “not bound directly”, the “effect of prolonged incubation on proportion of 12(S)-HETE bound” value ([4]; overnight at room temperature (FIG. 4)) was “does not increase the proportion of 12(S)-HETE bound” and the “direct binding of cys-LK-AP conjugate” value ([6]; AP conjugate only) was “not bound directly”. For the same compound, the “binding of Cys-LKs” value [6] was “does not appear to bind”, the “estimated concentration of LTB4 in solution” value [7] was 10000 pg/mL and the “binding of TXB2” value ([8]; 3333 pg/mL TXB2 (FIG. 6)) was “does not appear to bind”. For the same compound, the “direct binding of TXB2-AP conjugate” value [8, 13] was “not bound directly”, the “competition of excess 12(S)-HETE with LTB4-AP binding” value ([5]; 8.24 μg bOmCI (FIG. 10)) was “does not outcompete” and the “amount of protein that binds approximately 50% of the LTB4-AP” value ([5]; FIG. 8) was 0.33 µg. The “excess of protein needed to bind 50% of the LTB4-AP” value ([5]; calculated assuming 100% conjugation efficiency and IC50=1:1 binding) was 1200 ×, the “binding to LTB4-AP” value ([5]; dilution series, 50 μL LTB4-AP, no unlabelled LTB4 (FIG. 8)) was “dose dependent binding” and the “comparison of LTB4-AP binding by yOmCI and bOmCI” value [5] was “fairly similar”.

With CC(C)c1ccc2c(c1)c(SC(C)(C)C)c(CC(C)(C)C(=O)O)n2Cc1ccc(Cl)cc1 [MK886, reference compound] the “microvascular damage and inflammation” value ([1]; positive control (FIG. 16)) was “reduced dramatically”.

With “OmCI preloaded with LTB4: bOmCI with LTB4 loaded into the binding pocket (example 6)” the “inhibitory effect on immune complex induced disease after saturation of the LTB4 binding site” value ([1]; OmCI preloaded with LTB4 (FIG. 16)) was “attenuated the inhibitory effect of OmCI although it did not abrogate the response” and the “skin reaction induced by 100 ng LTB4” value ([3]; Example 8, 4:1 molar ratio, preloaded protein) was “did not prevent the skin reaction”.

In the case of CCCCC/C=C\C[C@@H](O)/C=C/C=C/C=C\[C@@H](O)CCCC(=O)O [LTB4, leukotriene B4], the “lower affinity of BLT2 than BLT1 for LTB4” value [9] is listed as 20 fold.

With “Ovalbumin: negative control protein ovalbumin (Mr 45 kDa) [reference compound]” the “skin reaction induced by 100 ng LTB4” value [3, 12] was “no effect on lesion formation” and the lesion formation ([3]; Example 8, negative control protein) was “no inhibitory effect on lesion formation”.
